Results on 35 compounds are retold here after US20260308159A1, “BICYCLIC HETEROARYLAMIDES HAVING GPR68 MODULATING ACTIVITY” (RECURSION PHARMACEUTICALS, INC., priority 2023, published 2026).

pIC50: −log10 of the molar value. Some results are limits rather than exact numbers.

The assay addresses T1, human GPR68 (Homo sapiens, UniProt Q15743).
T1 construct: encoding full-length human GPR68 (uniprot ID: Q15743); expressed in transfected cells; host or cells: HEK293T
Briefly: GPR68 Biochemical Assay (Promega GloSensor cAMP assay, GPR68 antagonism). The class given is cell-based. The settings on record: HEK293T cells transiently expressing hGPR68, antagonism of pH 5.5 stimulated cAMP, 15 min, read-out: hGPR68 IC50. In a few lines:
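HEK293T cells transiently co-transfected with full-length human GPR68 and GloSensor plasmids, preloaded 60 min with GloSensor substrate in pH 8.0 buffer. Compounds (9-point half-log series, top 50 μM final, 0.5% DMSO) added with pH 5.5 buffer (~EC80-90 stimulation); luminescence read after 15 min at room temperature. IC50 from sigmoidal fit of % inhibition.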
Background: cAMP levels reflect the balance of adenylyl cyclase and phosphodiesterase activity.

T1 sequence (Q15743 whole entry): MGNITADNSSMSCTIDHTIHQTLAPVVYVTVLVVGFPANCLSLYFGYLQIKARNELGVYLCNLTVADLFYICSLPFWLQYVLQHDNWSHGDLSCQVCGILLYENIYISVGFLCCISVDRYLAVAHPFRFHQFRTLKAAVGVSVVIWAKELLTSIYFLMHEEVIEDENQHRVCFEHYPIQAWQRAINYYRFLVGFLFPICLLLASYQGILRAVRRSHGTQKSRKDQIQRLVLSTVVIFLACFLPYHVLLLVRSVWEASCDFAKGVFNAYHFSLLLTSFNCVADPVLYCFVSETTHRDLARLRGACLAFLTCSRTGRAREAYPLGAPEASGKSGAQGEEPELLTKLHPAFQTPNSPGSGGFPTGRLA

As to `NC(=O)c1cnn2c(C(=O)NC3CC(F)(F)C3)ccnc12` [Compound 102, N7-(3,3-difluorocyclobutyl)pyrazolo[1,5-a]pyrimidine-3,7-dicarboxamide], the pIC50 is 5.30 to 6.30.

On to `NC(=O)c1cnn2c(C(=O)NC3CCC(F)(F)CC3)ccnc12` [Compound 103, N7-(4,4-difluorocyclohexyl)pyrazolo[1,5-a]pyrimidine-3,7-dicarboxamide], for which the negative-log IC50 (pIC50) was 5.30 to 6.30.

As to `COCc1nc2c(C(=O)NC3Cc4cccnc4C3)ccnn2c1C(N)=O` (centres unmarked) [Compound 104, N8-(6,7-dihydro-5H-cyclopenta[b]pyridin-6-yl)-2-(methoxymethyl)imidazo[1,2-b]pyridazine-3,8-dicarboxamide], the pIC50 was 6.30 to 7.30.

As for `COCc1nc2c(C(=O)NC3Cc4cscc4C3)ccnn2c1C(N)=O` [Compound 105, N8-(5,6-dihydro-4H-cyclopenta[c]thiophen-5-yl)-2-(methoxymethyl)imidazo[1,2-b]pyridazine-3,8-dicarboxamide], the pIC50 was more than 7.30.

On to `COCc1nc2c(C(=O)NC3Cc4ccccc43)ccnn2c1C(N)=O` (centres unmarked) [Compound 106, N8-(7-bicyclo[4.2.0]octa-1,3,5-trienyl)-2-(methoxymethyl)imidazo[1,2-b]pyridazine-3,8-dicarboxamide], for which the pIC50 is more than 7.30.

For the compound `COCc1nc2c(C(=O)NC3CC(F)(F)c4ccccc43)ccnn2c1C(N)=O` (centres unmarked) [Compound 107, N8-(3,3-difluoroindan-1-yl)-2-(methoxymethyl)imidazo[1,2-b]pyridazine-3,8-dicarboxamide], the pIC50 was more than 7.30.

As for `COCc1nc2c(C(=O)N[C@H]3CCOc4cc(F)ccc43)ccnn2c1C(N)=O` [Compound 108, 2-(methoxymethyl)-N8-[(4S)-7-fluorochroman-4-yl]imidazo[1,2-b]pyridazine-3,8-dicarboxamide], the negative-log IC50 (pIC50) was more than 7.30.

On to `COCc1nc2c(C(=O)NC3CCC(F)(F)CC3)ccnn2c1C(N)=O` [Compound 109, N8-(4,4-difluorocyclohexyl)-2-(methoxymethyl)imidazo[1,2-b]pyridazine-3,8-dicarboxamide], for which the pIC50 is more than 7.30.

Regarding `COCc1nc2c(C(=O)NCc3ccc(F)cc3)ccnn2c1C(N)=O` [Compound 110, N8-[(4-fluorophenyl)methyl]-2-(methoxymethyl)imidazo[1,2-b]pyridazine-3,8-dicarboxamide], the pIC50 was more than 7.30.

For `NC(=O)c1c(C2CC2)nn2c(C(=O)N[C@H]3C[C@@H](OC(F)(F)F)C3)ccnc12` [Compound 111, 2-cyclopropyl-N7-[cis-3-(trifluoromethoxy)cyclobutyl]pyrazolo[1,5-a]pyrimidine-3,7-dicarboxamide], the pIC50 is more than 7.30.

As to `NC(=O)c1c(C2CC2)nn2c(C(=O)NC3CC(F)(F)c4ccccc43)ccnc12` (centres unmarked) [Compound 112, 2-cyclopropyl-N7-(3,3-difluoroindan-1-yl)pyrazolo[1,5-a]pyrimidine-3,7-dicarboxamide], the pIC50 was more than 7.30.

`NC(=O)c1c(C2CC2)nn2c(C(=O)N[C@H]3CCOc4cc(F)ccc43)ccnc12` [Compound 113, 2-cyclopropyl-N7-[(4S)-7-fluorochroman-4-yl]pyrazolo[1,5-a]pyrimidine-3,7-dicarboxamide]: the pIC50 was more than 7.30.

As for `COCc1nn2c(C(=O)NC3COc4ccc(Cl)cc4C3)ccnc2c1C(N)=O` (centres unmarked) [Compound 114, N7-(6-chlorochroman-3-yl)-2-(methoxymethyl)pyrazolo[1,5-a]pyrimidine-3,7-dicarboxamide], the pIC50 was more than 7.30.

With `NC(=O)c1c(C2CC2)nn2c(C(=O)NC3Cc4cccnc4C3)ccnc12` (centres unmarked) [Compound 115, 2-cyclopropyl-N7-(6,7-dihydro-5H-cyclopenta[b]pyridin-6-yl)pyrazolo[1,5-a]pyrimidine-3,7-dicarboxamide], the pIC50 is more than 7.30.

Consider `COCc1nn2c(C(=O)NC3CCC(F)(F)c4ccccc43)ccnc2c1C(N)=O` (centres unmarked) [Compound 116, N7-(4,4-difluorotetralin-1-yl)-2-(methoxymethyl)pyrazolo[1,5-a]pyrimidine-3,7-dicarboxamide], for which the pIC50 is more than 7.30.

As to `COCc1nn2c(C(=O)Nc3cnc4c(F)cccc4c3)ccnc2c1C(N)=O` [Compound 117, N7-(8-fluoro-3-quinolyl)-2-(methoxymethyl)pyrazolo[1,5-a]pyrimidine-3,7-dicarboxamide], the pIC50 is more than 7.30.

As to `COCc1nn2c(C(=O)Nc3cc4ccccc4n3C)ccnc2c1C(N)=O` [Compound 118, 2-(methoxymethyl)-N7-(1-methylindol-2-yl)pyrazolo[1,5-a]pyrimidine-3,7-dicarboxamide], the pIC50 is more than 7.30.

For the compound `COCc1nn2c(C(=O)N[C@H]3COc4c3ccc(F)c4F)ccnc2c1C(N)=O` [Compound 119, 2-(methoxymethyl)-N7-[(3R)-6,7-difluoro-2,3-dihydrobenzofuran-3-yl]pyrazolo[1,5-a]pyrimidine-3,7-dicarboxamide], the pIC50 is more than 7.30.

Turning to `COCc1nn2c(C(=O)N[C@H]3COc4ccc(F)cc43)ccnc2c1C(N)=O` [Compound 120, N7-[(3R)-5-fluoro-2,3-dihydrobenzofuran-3-yl]-2-(methoxymethyl)pyrazolo[1,5-a]pyrimidine-3,7-dicarboxamide], the pIC50 was more than 7.30.

For `COCc1nn2c(C(=O)NC3(C)Cc4ccccc4C3)ccnc2c1C(N)=O` [Compound 121, 2-(methoxymethyl)-N7-(2-methylindan-2-yl)pyrazolo[1,5-a]pyrimidine-3,7-dicarboxamide], the pIC50 is 6.30 to 7.30.

In the case of `COCc1nn2c(C(=O)NC(C)c3ccc(F)cc3)ccnc2c1C(N)=O` (centres unmarked) [Compound 122, N7-[1-(4-fluorophenyl)ethyl]-2-(methoxymethyl)pyrazolo[1,5-a]pyrimidine-3,7-dicarboxamide], the pIC50 was 6.30 to 7.30.

On to `COCc1nn2c(C(=O)N[C@H]3CCOc4cc(F)ccc43)ccnc2c1C(N)=O` [Compound 123, 2-(methoxymethyl)-N7-[(4S)-7-fluorochroman-4-yl]pyrazolo[1,5-a]pyrimidine-3,7-dicarboxamide], for which the negative-log IC50 (pIC50) is more than 7.30.

As to `COCc1nn2c(C(=O)NC3(C)CC4(CC(F)(F)C4)C3)ccnc2c1C(N)=O` [Compound 124, N7-(2,2-difluoro-6-methyl-spiro[3.3]heptan-6-yl)-2-(methoxymethyl)pyrazolo[1,5-a]pyrimidine-3,7-dicarboxamide], the pIC50 is 5.30 to 6.30.

For the compound `COCc1nn2c(C(=O)NC(c3ccc(F)cc3)C(F)(F)F)ccnc2c1C(N)=O` (centres unmarked) [Compound 125, 2-(methoxymethyl)-N7-[2,2,2-trifluoro-1-(4-fluorophenyl)ethyl]pyrazolo[1,5-a]pyrimidine-3,7-dicarboxamide], the pIC50 was 5.30 to 6.30.

Turning to `COCc1nn2c(C(=O)NC3CC4(C3)CC(F)(F)C4)ccnc2c1C(N)=O` [Compound 126, N7-(2,2-difluorospiro[3.3]heptan-6-yl)-2-(methoxymethyl)pyrazolo[1,5-a]pyrimidine-3,7-dicarboxamide], the pIC50 is 6.30 to 7.30.

Take `COCc1nn2c(C(=O)NC3(c4ccc(F)cc4)CC3)ccnc2c1C(N)=O` [Compound 127, N7-[1-(4-fluorophenyl)cyclopropyl]-2-(methoxymethyl)pyrazolo[1,5-a]pyrimidine-3,7-dicarboxamide]: the pIC50 is 6.30 to 7.30.

In the case of `COCc1nn2c(C(=O)N[C@H]3COc4cc(F)ccc43)ccnc2c1C(N)=O` [Compound 128, 2-(methoxymethyl)-N7-[(3R)-6-fluoro-2,3-dihydrobenzofuran-3-yl]pyrazolo[1,5-a]pyrimidine-3,7-dicarboxamide], the pIC50 is more than 7.30.

On to `COCc1nn2c(C(=O)NC3CC(F)(F)c4ccccc43)ccnc2c1C(N)=O` (centres unmarked) [Compound 129, N7-(3,3-difluoroindan-1-yl)-2-(methoxymethyl)pyrazolo[1,5-a]pyrimidine-3,7-dicarboxamide], for which the pIC50 was more than 7.30.

In the case of `NC(=O)c1c(C2CC2)nn2c(C(=O)NC3Cc4ccccc4C3)ccnc12` [Compound 130, 2-cyclopropyl-N7-indan-2-yl-pyrazolo[1,5-a]pyrimidine-3,7-dicarboxamide], the pIC50 was more than 7.30.

Take `COCc1nn2c(C(=O)NC3CCC34CC(F)(F)C4)ccnc2c1C(N)=O` (centres unmarked) [Compound 131, N7-(2,2-difluorospiro[3.3]heptan-7-yl)-2-(methoxymethyl)pyrazolo[1,5-a]pyrimidine-3,7-dicarboxamide]: the pIC50 is 5.30 to 6.30.

For `COCc1nn2c(C(=O)N[C@H]3CC[C@@H](OC(F)(F)F)CC3)ccnc2c1C(N)=O` [Compound 132, 2-(methoxymethyl)-N7-[cis-4-(trifluoromethoxy)cyclohexyl]pyrazolo[1,5-a]pyrimidine-3,7-dicarboxamide], the pIC50 was 6.30 to 7.30.

`COCc1nn2c(C(=O)NCC3CCC(F)(F)CC3)ccnc2c1C(N)=O` [Compound 133, N7-[(4,4-difluorocyclohexyl)methyl]-2-(methoxymethyl)pyrazolo[1,5-a]pyrimidine-3,7-dicarboxamide]: the pIC50 is more than 7.30.

As for `NC(=O)c1c(C2CC2)nn2c(C(=O)NC3Cc4cscc4C3)ccnc12` [Compound 134, 2-cyclopropyl-N7-(5,6-dihydro-4H-cyclopenta[c]thiophen-5-yl)pyrazolo[1,5-a]pyrimidine-3,7-dicarboxamide], the pIC50 was more than 7.30.

Consider `NC(=O)c1c(C2CC2)nn2c(C(=O)NC3CCC(F)(F)CC3)ccnc12` [Compound 135, 2-cyclopropyl-N7-(4,4-difluorocyclohexyl)pyrazolo[1,5-a]pyrimidine-3,7-dicarboxamide], for which the pIC50 was more than 7.30.

Regarding `NC(=O)c1c(C2CC2)nn2c(C(=O)NC3CC(F)(F)C3)ccnc12` [Compound 136, 2-cyclopropyl-N7-(3,3-difluorocyclobutyl)pyrazolo[1,5-a]pyrimidine-3,7-dicarboxamide], the pIC50 was more than 7.30.

The term pIC50 denotes the negative decadic logarithm of the IC50, by convention in mol/L.
